Source: patent US6420367B1, “Pyrimidine derivatives exhibiting antitumor activity” (Shionogo & Co., Ltd., priority 1998, dated 2002)
Values after ≈ are worked out from the molar mass of the structure shown.

How the values were obtained:
[1] = test system: DT-R cells (pRRE3-luc-transfected v-ki-ras-transformed NIH3T3 cells); signal derived from Ras oncogene products; assay: Inhibitory effect against cellular signaling derived from Ras oncogene products: luciferase reporter, dissociation of DT-R from DT-C activity (MAC); format: cell-based, mouse; conditions: minimal tested concentration at which luciferase activities of DT-C cells and DT-R cells dissociated
Method in brief: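 Value is a minimal active concentration: lowest dose where Ras-responsive reporter (DT-R) luciferase diverges from SV40-minimal-promoter control (DT-C). Both transfected v-Ki-ras NIH3T3 lines received 3-fold serial dilutions for 24 h at 37 °C in 10% FCS medium before lysis and luminometry.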

[2] = test system: DT-C cells (pGV-P-transfected v-ki-ras-transformed NIH3T3 cells); assay: Luciferase activity in control DT-C cells (IC50-C): non-specific transcription-inhibitory effect or cytotoxicity; format: cell-based, mouse; conditions: tested concentration nearest to 50% inhibition in DT-C cells; index of non-specific transcription inhibition or cytotoxicity
From the text: Test Example 1 Inhibitory Effect Against Cellular Signaling Derived From Ras Oncogene Products
1) Establishment of Cell Lines Used in Assay
Based on the reporter plasmid (pGV-P (Toyo Ink, Japan)), in which luciferase gene was ligated to SV40-derived minimal promoter, we constructed a plasmid designated pRRE3-luc by inserting 3 copies of chemically synthesized oligonucleotides (Sequence: CAGGATATGACTCT, derived from mouse NVL-3 (M. A. Reddy et al.(1992)Mol. Endocrinol., 6, 1051)) into upstream of the promoter. v-ki-ras-transformed NIH3T3 cells (DT cells, provided by Dr. Makoto Noda (Kyoto Univ., School of medicine)) were transfected with this plasmid by liposome-mediated transfection and transfected cell lines stably incorporated and maintained each plasmid were obtained. We named pGV-P and pRRE3-transfected cell line as DT-C and DT-R, respectively and used in the assay described below.
2) Preparation of Samples
i) All the cell lines were cultured in Dulbecco's Modified Essential Medium (DMEM: 10% Fetal Calf Serum(FCS: Hyclone, USA)) including […] kanamycin (Meiji Seika, Japan) in humidified incubator under condition of 5% CO2 at 37° C.
ii) DT-C and DT-R cells were seeded at 2500 cells/well into flat-bottom 96 well multiplate (Sumitomo bakelite) and incubated for 24 hours.
iii) Test compounds were prepared as 1 mg/ml DMSO solution.
iv) The solution of test compounds were added to the culture. Tested compounds are used at the concentration from […] to 0.51 ng/ml with by 3-fold dilution.
v) After 24 hours, the culture supernatant was completely aspirated and […] of cell-lysing solution (PGC-50 (Toyo Ink, Japan)) was added before cells were dried up. In order to the cells were lysed completely, multiwell plates were left at room temperature for 10 to 30 min. The plates were wrapped up and stored at −20° C. till the day of measurement.
3) Measurement of Samples
i) Melt the samples by putting 96 well multiplate at 37° C. and add 90 μl/well 25 mM Tris (pH 7.5).
ii) Transfer 50 μl of the sample (110 μl) to the 96 well microplate for measurement (Microlite 1 (Dynatech)).
iii) Measure the samples by the luminometer, LUMINOUS CT9000D (Dia-Yatron, Japan). We used Pickagene luminescence kit PGL2000 or LT2.0 (Toyo Ink, Japan) as substrates for luminescence measurement (50 μl/well).
4) Judgment of the Results
i) The luciferase activity of DT-C cells and DT-R cells were plotted in the graph where the relative activity and the compound concentration were expressed as Y-axis and X-axis, respectively. We judged by the degree of dissociation between the activities of DT-C cells and DT-R cells as an index.
ii) Concretely, efficacy of the compound was expressed by two values described below.
b) Among the points of concentration tested, the concentration which is the nearest to 50% inhibition concentration at DT-C cells (IC50-C), was shown as an index of non-specific transcription-inhibitory effect or of cytotoxicity. In case of positive compounds, 50% inhibition concentration above the area of active concentration in DT-C cells was expressed as IC50-C.

[3] = test system: human lung adenocarcinoma A549; assay: In vitro cell growth inhibition test, MTT assay; format: cell-based; conditions: MTT assay 4 days after compound addition
Method in brief: (§1)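 Read-out is MTT-based cell growth inhibition, run in parallel on human lung, colon and pancreatic (PANC-1) tumour lines.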

[4] = test system: human squamous lung cancer Ma44; assay: In vitro cell growth inhibition test, MTT assay; format: cell-based; conditions: MTT assay 4 days after compound addition
Method in brief: as §1

[5] = test system: human squamous lung cancer RERF-RC-AI; assay: In vitro cell growth inhibition test, MTT assay; format: cell-based; conditions: MTT assay 4 days after compound addition
Method in brief: as §1

[6] = test system: human colon cancer HT29; assay: In vitro cell growth inhibition test, MTT assay; format: cell-based; conditions: MTT assay 4 days after compound addition
Method in brief: as §1

[7] = test system: human pancreas cancer PANC-1; assay: In vitro cell growth inhibition test, MTT assay; format: cell-based; conditions: MTT assay 4 days after compound addition
Method in brief: as §1

SMILES	MAC (Minimal Active Concentration) [1] [µg/mL]	IC50-C [2] [µg/mL]	IC50, A549 [3] [µg/mL]	IC50, Ma44 [4] [µg/mL]	IC50, RERF-LC-AI [5] [µg/mL]	IC50, HT29 [6] [µg/mL]	IC50, PANC-1 [7] [µg/mL]
CCNC(=Nc1nc(C)ncc1CSc1nnc(-c2ccccc2N)o1)NCC [Compound A-24]	0.0137	3.33 (≈ 8.07 µM)	0.026 (≈ 0.063 µM)	0.028 (≈ 0.0679 µM)	0.0071 (≈ 0.0172 µM)	–	–
CCNC(=Nc1nc(C)ncc1CSc1nnc(-c2ccccc2NC(=O)CC)o1)NCC [Compound A-26]	0.370	>10	0.06 (≈ 0.128 µM)	0.055 (≈ 0.117 µM)	0.016 (≈ 0.0341 µM)	–	–
CCCNC(=Nc1nc(C)ncc1CSc1nnc(-c2ccccc2N)o1)NCC [Compound A-36]	0.0412	3.33 (≈ 7.81 µM)	–	0.026 (≈ 0.061 µM)	0.0072 (≈ 0.0169 µM)	0.015 (≈ 0.0352 µM)	0.014 (≈ 0.0328 µM)
CCNC(=Nc1nc(CC)ncc1CSc1nnc(-c2ccccc2N)o1)NCC [Compound A-37]	0.0412	3.33 (≈ 7.81 µM)	–	0.24 (≈ 0.563 µM)	0.021 (≈ 0.0492 µM)	0.03 (≈ 0.0703 µM)	0.025 (≈ 0.0586 µM)
CCNC(=Nc1nc(C)ncc1CSc1nnc(-c2ccc(Cl)cc2N)o1)NCC [Compound A-44]	<0.000508	3.33 (≈ 7.45 µM)	–	0.018 (≈ 0.0403 µM)	0.0061 (≈ 0.0136 µM)	0.0061 (≈ 0.0136 µM)	0.16 (≈ 0.358 µM)
CCNC(=Nc1nc(C)ncc1CSc1nnc(-c2ccc(F)cc2N)o1)NCC [Compound A-49]	<0.000508	3.33 (≈ 7.73 µM)	–	0.0032 (≈ 0.00743 µM)	0.0016 (≈ 0.00372 µM)	0.0028 (≈ 0.0065 µM)	–
CCNC(=Nc1nc(C)ncc1CSc1nnc(-c2c(N)cccc2F)o1)NCC [Compound A-51]	0.123	3.33 (≈ 7.73 µM)	–	0.088 (≈ 0.204 µM)	0.012 (≈ 0.0279 µM)	0.028 (≈ 0.065 µM)	–
CCNC(=Nc1nc(C)ncc1CSc1nnc(-c2ccc(F)cc2NC(C)=O)o1)NCC [Compound A-60]	<0.000508	>10	–	0.012 (≈ 0.0254 µM)	0.004 (≈ 0.00846 µM)	–	0.0039 (≈ 0.00825 µM)
CCNC(=Nc1nc(C)ncc1CSc1nnc(-c2ccc(Cl)cc2NC(C)=O)o1)NCC [Compound A-61]	<0.000508	>10	–	0.016 (≈ 0.0327 µM)	0.0041 (≈ 0.00838 µM)	–	0.0063 (≈ 0.0129 µM)
CCNC(=Nc1nc(C)ncc1CSc1nnc(-c2ccc(C)cc2N)o1)NCC [Compound A-63]	0.0412	3.33 (≈ 7.81 µM)	–	0.053 (≈ 0.124 µM)	0.006 (≈ 0.0141 µM)	–	0.0087 (≈ 0.0204 µM)
CCNC(=Nc1nc(C)ncc1CSc1nnc(-c2ccc(N)cc2O)o1)NCC [Compound A-96]	0.370	>10	–	–	–	–	–
CCNC(=Nc1ncncc1CSc1nnc(-c2ccc(F)cc2)o1)NCC [Compound A-110]	0.123	>10	0.042 (≈ 0.105 µM)	0.063 (≈ 0.157 µM)	0.006 (≈ 0.0149 µM)	0.0077 (≈ 0.0192 µM)	–
CCNC(=Nc1ncncc1CSc1nnc(-c2ccc(N)cc2)o1)NCCOC(C)=O [Compound A-112]	1.11	>10	0.38 (≈ 0.832 µM)	2 (≈ 4.38 µM)	0.023 (≈ 0.0504 µM)	0.064 (≈ 0.14 µM)	–
CCNC(=Nc1ncncc1CSc1nnc(-c2ccc(C(N)=S)cc2)o1)NCC [Compound A-123]	1.11	>10	0.15 (≈ 0.339 µM)	0.09 (≈ 0.203 µM)	0.034 (≈ 0.0768 µM)	0.041 (≈ 0.0926 µM)	–
CCNC(=Nc1ncncc1CSc1nnc(-c2ccc([N+](=O)[O-])cc2OC)o1)NCC [Compound A-124]	0.0137	>10	0.026 (≈ 0.0567 µM)	0.024 (≈ 0.0523 µM)	0.022 (≈ 0.048 µM)	0.028 (≈ 0.0611 µM)	–
CCNC(=Nc1nc(CC)ncc1CSc1nnc(-c2ccc(N)cc2)o1)NCC [Compound A-154]	0.0412	>10	–	0.04 (≈ 0.0938 µM)	0.008 (≈ 0.0188 µM)	0.012 (≈ 0.0281 µM)	0.018 (≈ 0.0422 µM)
CCCNC(=Nc1nc(C)ncc1CSc1nnc(-c2ccc(N)cc2)o1)NCCC.Cl.Cl [Compound A-160]	0.0137	>10	–	–	–	–	–
CCNC(=Nc1nc(C)ncc1CSc1nnc(-c2ccc([N+](=O)[O-])cc2)o1)NC.Cl [Compound A-163]	0.0137	>10	–	–	–	–	–
CCCNC(=Nc1nc(C)ncc1CSc1nnc(-c2ccc([N+](=O)[O-])cc2)o1)NC.Cl [Compound A-164]	0.0137	>10	–	–	–	–	–
CCNC(=Nc1nc(C)ncc1CSc1nnc(-c2ccc(N)cc2OC)o1)NCC.Cl [Compound A-189]	0.0412	–	0.051	0.085	0.016	0.032	0.021
CCNC(=Nc1nc(C)ncc1CSc1nnc(-c2cccnc2N)o1)NCC [Compound D-1]	1.11	>10	–	–	–	–	–
CCNC(=Nc1ncncc1CSc1nnc(-c2ccsc2)o1)NCC [Compound D-21]	0.37	>10	0.049 (≈ 0.126 µM)	0.35 (≈ 0.899 µM)	0.013 (≈ 0.0334 µM)	0.016 (≈ 0.0411 µM)	–
CCNC(=Nc1ncncc1CSc1nnc(-c2ccc(C)nc2)o1)NCC [Compound D-29]	1.11	>10	0.22 (≈ 0.552 µM)	0.52 (≈ 1.3 µM)	0.11 (≈ 0.276 µM)	0.09 (≈ 0.226 µM)	–
CCNC(=Nc1ncncc1CSc1nnc(-c2ccoc2)o1)NCC [Compound D-30]	1.11	>10	0.1 (≈ 0.268 µM)	2.4 (≈ 6.43 µM)	0.046 (≈ 0.123 µM)	0.033 (≈ 0.0884 µM)	–
CCNC(=Nc1nc(C)ncc1CSc1nnc(-c2ccsc2NC(C)=O)o1)NCC [Compound D-36]	0.0412	>10	0.032 (≈ 0.0695 µM)	0.065 (≈ 0.141 µM)	0.023 (≈ 0.0499 µM)	0.049 (≈ 0.106 µM)	–
CCNC(=Nc1nc(C)ncc1CSc1nnc(-c2ccc([N+](=O)[O-])cn2)o1)NCC [Compound D-45]	1.11	–	0.0061 (≈ 0.0138 µM)	0.74 (≈ 1.67 µM)	0.062 (≈ 0.14 µM)	0.038 (≈ 0.0857 µM)	0.12 (≈ 0.271 µM)
